Source: patent US20090093054A1, “CRYOPRESERVATION OF HUMAN BLASTOCYST-DERIVED STEM CELLS BY USE OF A CLOSED STRAW VITRIFICATION METHOD” (Cellartis AB, priority 2003, published 2009)
Several values for one entry are separate records, joined by “and”; a condition that tells them apart may be missing. Equal values may be shown once.

Experiments:
Human BS cell line SA121 = experiment: Thawing recovery after closed straw vitrification and devitrification, cell line SA121; type: cell-based; settings: for Thawing recovery, trehalose compared with sucrose: same molar concentration in vitrification and devitrification medium; for Thawing recovery: viable thawed colonies / hBS cell pieces originally vitrified, per individual closed straw, 48 h after seeding on MEF, sugar in vitrification and devitrification medium, same molar concentration for both; for Thawing recovery (SA121): viable colonies / pieces vitrified per closed straw, 48 h after seeding
Method: Two solutions A and B are prepared (Solution A: Sterile filtered 10% Ethylene glycol, 10% DMSO in Cryo-PBS; Solution B: Sterile filtered 0.3M Trehalose, 20% Ethylene glycol, 10% DMSO in Cryo-PBS) Selected colonies of human blastocyst-derived stem cells, which display proper morphology, are cut in the same way as when the cells are cut for regular passage using a stem cell cutting tool (Swemed Labs International, BilIdal, Sweden). The cell pieces should be about 0.1-0.4 mm×0.1-0.4 mm in size. The cell pieces are incubated first in 500 μl preheated (37° C.) Solution A for 1 min and then transferred to 25 μl Solution B and incubated for 30 s and then transferred again to a fresh drop of Solution B and incubated for 30 s. The volume is about 40-50 μl. About 10 cell pieces are aspirated into a straw prepared for vitrification and the straw is then closed with a bond. The straw is plunged into liquid nitrogen.
Two solutions C and D are prepared (Solution C: Sterile filtered 0.2M Trehalose in Cryo-PBS.; Solution D: Sterile filtered 0.1 M Trehalose in Cryo-PBS). Solutions C and D and hBS-medium are preheated at 37° C. A closed straw containing vitrified hBS cells (about 10 cell pieces) is removed from the liquid nitrogen tank. The straw is keep at room temperature for 10 s and then quickly thawed in a 40° C. water bath (within seconds). The straw is cut open in the plugged end using an autoclaved pair of scissors and the content pushed out from the straw into solution C using a syringe. The hBS cells are incubated for 1 min in 500 μl solution C and the transferred to 500 μl solution D and incubated for 5 min. Under a stero-microscope the hBS cell pieces are quickly rinsed in hBS medium and then seeded in a culture dish on top of mouse embryonic feeder cells in hBS medium. The cells are then cultured (incubated at 37° C.) and the number of established new colonies are counted and passaged in order to verify the viability of the hBS cells after vitrification. The recovery of viable cells following this vitrifying and thawing procedures is normally in the range of 70-100%.
Human BS cells (cell line SA121) were vitrified and thawed either following the procedure described in Example 1 & 2 or following the procedure described in Example 1 and 2 with the exception that trehalose was used in the vitrification and devitrification medium was replaced by sucrose in the same molar concentration as used for trehalose. Forty-eight hours after seeding in culture dishes on top of mouse embryonic feeder cells the hBS cell colonies were evaluated and counted. The thawing recovery was calculated as the ratio between the number of viable thawed colonies (displaying appropriate hBS cell morphology) and the number of hBS cell pieces originally vitrified. […]
Human BS cells (cell line SA121) were vitrified and thawed following the procedure described in Example 1 & 2 with the exception that trehalose was used in two different concentrations (0.3M and 0.5M) in the second vitrification solution (solution B). When 0.3 M trehalose was used in solution B, solution C contained 0.2 M trehalose and solution D contained 0.1 M trehalose. When 0.5 M trehalose was used in solution B, solution C contained 0.4 M trehalose and solution D contained 0.2 M trehalose. Forty-eight hours after seeding in culture dishes on top of mouse embryonic feeder cells the hBS cell colonies were evaluated and counted. The thawing recovery was calculated as the ratio between the number of viable thawed colonies (displaying appropriate hBS cell morphology) and the number of hBS cell pieces originally vitrified. Two separate experiments using two different human BS cell lines were performed. Three straws were prepared and evaluated per cell line and the results are presented below for each individual straw.

Human BS cell line SA002 = experiment: Thawing recovery after closed straw vitrification and devitrification, cell line SA002; type: cell-based; settings: viable colonies / pieces vitrified per closed straw, 48 h after seeding
[1] = 0.3M trehalose in solution B (C 0.2 M, D 0.1 M)
[2] = 0.5M trehalose in solution B (C 0.4 M, D 0.2 M)

Structure (SMILES)	Thawing recovery, trehalose compared with sucrose (Human BS cell line SA121; result in words)	Thawing recovery (Human BS cell line SA121)	Thawing recovery (SA121) (Human BS cell line SA121; [1])	Thawing recovery (SA121) (Human BS cell line SA121; [2])	Thawing recovery, 0.5 M compared with 0.3 M trehalose in solution B (Human BS cell line SA121; cell lines SA121 and SA002, result in words)	Thawing recovery (SA002) (Human BS cell line SA002; [1])	Thawing recovery (SA002) (Human BS cell line SA002; [2])
OC[C@H]1O[C@@](CO)(O[C@H]2O[C@H](CO)[C@@H](O)[C@H](O)[C@H]2O)[C@@H](O)[C@@H]1O [Sucrose]	no significant difference	8/10 and 5/10 and 9/10					
OC[C@H]1O[C@H](O[C@H]2O[C@H](CO)[C@@H](O)[C@H](O)[C@H]2O)[C@H](O)[C@@H](O)[C@@H]1O [Trehalose]	no significant difference	5/9 and 8/10 and 6/10	6/10 and 5/10	8/10 and 9/10 and 8/8	seems to work better	5/8 and 6/8 and 7/7	7/8 and 8/8 and 5/7
